In patent publication US9950007B2, “Neuronal protection by cerium oxide nanoparticles” (UNIVERSITY OF CENTRAL FLORIDA RESEARCH FOUNDATION, INC., priority 2011, dated 2018):
Entries after “also recorded” stand apart in the source; their conditions may differ.

Experiments:
[1] = ONOO^−-mediated APF oxidation in vitro (fluorescence spectroscopy); details: ONOO^− 20 μM, fluorescence 515 nm (ex. 490 nm)
Experimental: To obtain further insight into the ONOO^− scavenging abilities of CeO2 NPs, the yield of oxidized APF was followed by fluorescent spectroscopy using the oxidizable probe, 3′-(p-aminophenyl) fluorescein (APF) as an indicator (FIG. 2B). APF is an aromatic amino-fluorescein derivative that has little intrinsic fluorescence but undergoes oxidation by only hydroxyl radical, hypochlorate ion, and certain peroxidase intermediates such as ONOO^−, but is inert to NO., O2^⋅− and H2O2 (40).
ONOO^− (20 μM) was added to APF along with varying amounts CeO2 NPs. Glutathione (Fisher, Fair Lawn, N.J.) and uric acid (Avocado, Research Chemicals, Ltd.) known scavengers of ONOO^−, were used as positive controls. Fluorescence at 515 nm (ex. 490 nm) was measured using a Varian Cary Eclipse fluorescence spectrophotometer (Palo Alto, Calif.).

[2] = Decay of ONOO^− followed at 302 nm by UV-visible spectroscopy
Experimental: The decay of ONOO^− was followed in the absence and presence of CeO2 NPs (FIG. 2A and Supplementary FIG. 3: Effect of CeO2 NPs on the rate of decay of ONOO— in vitro varying pH. ONOO— (25 μM) was added at various pH's alone and in the presence of CeO2 NPs (100 μM), SiO2 NPs (100 μM), glutathione (GSH) (0.5 mM). (A) Peroxynitrite absorbance followed at 302 nm in 100 mM sodium phosphate buffer at pH 8.6. (N=4). GSH, known general scavenger and SiO2 NPs were added as positive and negative controls, respectively. Rate of ONOO—(black traces) decomposition was increased with CeO2 NPs (blue traces) in a similar manner of GSH (red traces). Rate of decomposition was not affected by presence of SiO2 NPs (green traces). B) 100 mM sodium phosphate buffer at pH 9.5. (N=3). Rate of ONOO—(black traces) decomposition was increased with CeO2 NPs (blue traces) in a similar manner of GSH (red traces). Absorbance was normalized by subtracting the final absorbance from initial absorbance and dividing by the amplitude. As stock solutions of ONOO— contain 0.3 M NaOH, control incubations were performed with equivalent amounts of NaOH. All in vitro experiments were performed using phosphate buffers containing 1 μM DPTA.). The in vitro assays were repeated using various phosphate buffers while varying the pH's. Since carbon dioxide is known to enhance the rate of ONOO^− decomposition (38), the change in absorbance at 302 nm was followed in potassium phosphate buffer (pH 8.0), which was degassed by argon. […] This change of absorbance in response to addition of CeO2 NPs in these studies also mimics the scavenging seen with glutathione, a known antioxidant that protects cells from free radicals and peroxides (39). […]
UV-visible spectroscopy was used to measure decomposition of ONOO^− in the presence and absence of CeO2 NPs. […] Each sample was analyzed for a total of 600 seconds with a cycle time of 0.5 seconds at a wavelength of 302 nm using buffer containing 100 mM sodium phosphate buffer (pH 9.5-8.0) and 1 μM diethylenetriaminepentaacetic acid (DPTA) with or without CeO2 NPs. […]

[3] = tested on: DRP1 phosphorylation at S616; assay: Western blot of p-DRP1 S616 in neurons; assay type: cell-based, rat; details: preaggregated Aβ 25-35 10 μM, 6 h; nanoceria 100 nM or NAC 50 μM, 3 h pretreatment
Experimental: To measure the levels of p-DRP1 S616, neurons were lysed in buffer containing 50 mM Tris-Cl, pH 7.0, 150 mM NaCl, 1 mM MgCl2, 1 mM NaF, 1 mM NaVO4, 1% NP40, 10% glycerol and complete Protease Inhibitor Cocktail Tablets (Roche Applied Science, US). Membranes were blocked with 5% nonfat milk in TBS (pH 8.0) with 0.05% Tween20 for 3 h at room temperature (RT) and were incubated with primary rabbit polyclonal antibodies for p-DRP1 S616 (Cell Signaling) (1:1000) overnight at 4° C. The membranes were then washed four times (5 min) with TBS (0.05% Tween) and incubated for 2 h at room temperature with anti-rabbit horseradish peroxidase-conjugated secondary antibodies (GE Healthcare)(1:15,000) in blocking solution. After 4 washes (5 min) of TBS (0.05% Tween), immunocomplexes were then detected using the Super-Signal West-Dura or Femto chemiluminescent substrates (Pierce, Thermoscientific, Rockford, Ill.). For re-probing the membranes were stripped with Restore Western Blot Stripping Buffer (Thermo-Scientific) according to the manufacturer and incubated with mouse monoclonal antibodies for DRP1 (BD Biosciences, clone 8/DLP1) (1:1000) antibody or with polyclonal rabbit antibodies for β-actin (Cell Signaling) (1:1000).

cortical neurons = assay: Scoring for neuronal cell death under nitrosative stressors; assay type: cell-based, rat; details: oligomerized Aβ 25-35 10 μM, 6 h; nanoceria 100 nM or NAC 50 μM, 3 h pretreatment
Experimental: To assess the neuronal protection capabilities of CeO2 NPs, pure cortical neuronal cultures transfected with DsRed2-Mito were pretreated with CeO2 NPs (100 nM) and subjected to various treatments known to increase RNS. […] Cell death was evaluated by condensed nuclei accompanied by shrunken soma and mitochondrial fragmentation (FIG. 4A center panel).
Cultures were either transfected with DsRed2-Mito on day 5 using LipoFectamine2000® or immunostained for microtubule-associated protein 2 (MAP2) for visualization of processes. Experiments were performed after 11-14 days in vitro (DIV) with 3-NP, glutamate or NMDA. SNOC treated cultures were performed after 8 DIV. Neurons were pretreated with CeO2 NPs for various time points, 3 h, 12 h, 24 h or 72 h. For cultures treated with 3-NP (diluted in EBSS and pH adjusted to 7.4 with NaOH), 3-NP was diluted in individual culture's conditioned medium before exchange and cultures left for 8 h. Brief exposure to NMDA was carried as follows. […] Cells with fragmented mitochondria and condensed chromatin by Hoechst 33342 staining were scored as dead neurons. To evaluate mitochondrial fragmentation and cell death of a large number of neurons, manual scoring was carried out of neurons grown on glass coverslips using conventional fluorescence microscopy. […]

[4] = tested on: mitochondrial morphology in cortical neurons; assay: Mitochondrial fragmentation in neurons expressing DsRed2-Mito; assay type: cell-based, rat; details: Aβ 25-35 10 μM, 6 h; nanoceria 100 nM or NAC 50 μM, 3 h pretreatment
From the text: To test whether nanoceria would prevent the Aβ-induced mitochondrial fragmentation, the mitochondrial morphology by fluorescence microscopy in neurons expressing DsRed2-Mito, a red fluorescent protein targeted to the mitochondrial matrix was visualized.
Cultures were either transfected with DsRed2-Mito on day 5 using LipoFectamine2000® or immunostained for microtubule-associated protein 2 (MAP2) for visualization of processes. […] For Aβ (25-25) treated cultures, Aβ (25-35) or reverse (35-25) was left to oligomerize for 24 h at 25° C. before adding to cultures at 10 μM for 6 h. Cells were fixed in 3.7% formaldehyde and 5% sucrose in PBS for 20 min at 37° C. […] Cells with fragmented mitochondria and condensed chromatin by Hoechst 33342 staining were scored as dead neurons. To evaluate mitochondrial fragmentation and cell death of a large number of neurons, manual scoring was carried out of neurons grown on glass coverslips using conventional fluorescence microscopy.
Neurons were grown on poly-Lysine coated glass cover slips as described before and transfected with DsRed2-Mito after 5 days in vitro (DIV) using Lipofectamine2000®. […] Quantification of mitochondrial fragmentation and neuronal cell death was performed as described (30). Fluorescence microscopy and image acquisition of mitochondrial morphology was performed as previously described (98).

[5] = cited from earlier work

N[C@@H](CCC(=O)N[C@@H](CS)C(=O)NCC(=O)O)C(=O)O [GSH, glutathione]
oxidation of APF by ONOO^− [1]: prevented the oxidation of APF
rate of ONOO^− decomposition ([2]; 100 mM sodium phosphate buffer pH 8.6, ONOO^− 25 μM, CeO2 NPs 100 μM, SiO2 NPs 100 μM, GSH 0.5 mM): increased
rate of ONOO^− decomposition ([2]; 100 mM sodium phosphate buffer pH 9.5, ONOO^− 25 μM, CeO2 NPs 100 μM, GSH 0.5 mM): increased

CC(=O)N[C@@H](CS)C(=O)O [NAC, N-acetyl-L-cysteine]
Aβ 25-35-induced DRP1 S616 phosphorylation [3]: abolished
cell viability / cell death after Aβ (25-35) (cortical neurons): relieved; also recorded: reduced
Aβ25-35-induced mitochondrial fragmentation (fluorescence micrographs) [4]: prevented

O=c1[nH]c(=O)c2[nH]c(=O)[nH]c2[nH]1 [uric acid]
oxidation of APF by ONOO^− [1]: prevented the oxidation of APF
rate of ONOO^− decomposition ([2]; potassium phosphate buffer pH 8.0, degassed by argon, absorbance 302 nm): increased

nitro-tyrosine
pKa [5]: 7.4
